Measurements published in US20100179093A1, “Neoropeptide-2-Receptor (Y-2R) Agonists” (priority 2008, published 2010).

Tests used:
hypothalamic slices = hypothalamic slices in vitro; cited from earlier work
Y1R = target: T1, Y1R (Homo sapiens, UniProt P25929); assay: CaFlux Assay (FLIPR), Y1R; format: cell-based
T1 sequence (P25929 1-384): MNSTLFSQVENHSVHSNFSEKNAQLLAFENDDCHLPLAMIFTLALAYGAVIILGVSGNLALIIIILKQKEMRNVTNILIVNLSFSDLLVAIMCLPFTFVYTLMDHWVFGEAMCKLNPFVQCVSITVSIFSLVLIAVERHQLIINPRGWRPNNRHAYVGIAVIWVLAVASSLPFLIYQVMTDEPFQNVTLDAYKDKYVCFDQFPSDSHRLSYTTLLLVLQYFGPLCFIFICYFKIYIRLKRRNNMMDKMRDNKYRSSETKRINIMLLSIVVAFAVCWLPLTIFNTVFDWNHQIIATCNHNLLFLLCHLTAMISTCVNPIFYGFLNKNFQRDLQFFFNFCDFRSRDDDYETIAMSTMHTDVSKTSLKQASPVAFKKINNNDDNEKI

Y5R = target: T2, Y5R (Homo sapiens, UniProt Q15761); assay: CaFlux Assay (FLIPR), Y5R; format: cell-based; details: for Emax: read-out: Y5R FLIPR, percentage in parentheses under the EC50;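 on Emax: percent of the maximal response of the positive control agonist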
T2 sequence (Q15761 1-445): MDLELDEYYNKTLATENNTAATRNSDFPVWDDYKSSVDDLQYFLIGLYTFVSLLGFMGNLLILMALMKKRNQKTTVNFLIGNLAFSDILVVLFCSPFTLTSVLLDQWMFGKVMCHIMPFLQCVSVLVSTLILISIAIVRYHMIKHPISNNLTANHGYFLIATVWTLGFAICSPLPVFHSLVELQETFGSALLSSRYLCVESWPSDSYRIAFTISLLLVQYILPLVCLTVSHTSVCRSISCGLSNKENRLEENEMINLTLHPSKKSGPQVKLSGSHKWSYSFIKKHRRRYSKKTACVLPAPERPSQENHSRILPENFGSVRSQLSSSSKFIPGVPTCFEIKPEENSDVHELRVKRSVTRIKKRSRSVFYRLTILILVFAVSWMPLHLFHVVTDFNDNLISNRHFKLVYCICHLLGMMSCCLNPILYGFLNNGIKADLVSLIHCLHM

hNPY2R [1] = target: T3, hNPY2R (Homo sapiens, UniProt P49146); assay: cAMP Agonist Assay, HEK293/hNPY2R cells; format: cell-based; set-up: expressed in transfected cells; host or cells: HEK293/hNPY2R (G418 selection)
T3 sequence (P49146 1-381): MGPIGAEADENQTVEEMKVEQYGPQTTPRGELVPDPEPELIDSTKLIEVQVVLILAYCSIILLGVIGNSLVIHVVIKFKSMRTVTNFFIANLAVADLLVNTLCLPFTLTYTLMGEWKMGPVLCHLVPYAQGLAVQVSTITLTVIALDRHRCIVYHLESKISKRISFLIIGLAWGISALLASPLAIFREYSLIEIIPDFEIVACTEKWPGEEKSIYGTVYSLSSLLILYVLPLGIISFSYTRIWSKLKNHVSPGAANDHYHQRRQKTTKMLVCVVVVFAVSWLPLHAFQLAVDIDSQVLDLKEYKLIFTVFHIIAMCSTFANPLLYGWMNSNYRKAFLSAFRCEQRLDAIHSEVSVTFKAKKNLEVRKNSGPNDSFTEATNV

Y4R = Y4R (Homo sapiens, UniProt P50391); assay: CaFlux Assay (FLIPR), Y4R; format: cell-based
Sequence of Y4R (P50391 whole entry): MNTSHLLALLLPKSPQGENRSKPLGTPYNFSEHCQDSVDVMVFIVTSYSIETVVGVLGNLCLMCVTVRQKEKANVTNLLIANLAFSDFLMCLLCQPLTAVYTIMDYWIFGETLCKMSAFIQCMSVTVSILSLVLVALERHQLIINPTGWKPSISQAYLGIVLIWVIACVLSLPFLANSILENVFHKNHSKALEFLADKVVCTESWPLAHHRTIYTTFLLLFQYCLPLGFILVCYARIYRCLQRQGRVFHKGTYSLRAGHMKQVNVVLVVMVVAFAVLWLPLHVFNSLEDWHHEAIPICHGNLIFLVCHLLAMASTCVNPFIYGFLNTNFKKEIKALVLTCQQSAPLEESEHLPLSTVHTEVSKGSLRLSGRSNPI

hNPY2R [2] = target: T3, hNPY2R; assay: CaFlux Assay (FLIPR), Y2R; format: cell-based; set-up: expressed in transfected cells; host or cells: HEK-293 stably expressing G protein chimera Gaqi9

Compound: N=C(N)NCCC[C@H](NC(=O)CC1(CC(=O)N2CCN(C3c4ccccc4NC(=O)c4ccccc43)CC2)CCCC1)C(=O)NCCn1c(=O)n(-c2ccccc2)n(-c2ccccc2)c1=O (stereo partly shown) [BIIE0246]
- NPY release (hypothalamic slices): increases NPY release

Compound: CCCCCCCCCCCCCCCC(=O)NCCOCCOCCNC(=O)CCC(=O)NCCCC[C@H](NC(=O)[C@@H](N)[C@@H](C)CC)C(=O)N1CCN(c2ccc3ncn(CC(=O)N[C@@H](CCCNC(=N)N)C(=O)N[C@@H](Cc4c[nH]cn4)C(=O)N[C@@H](Cc4ccc(O)cc4)C(=O)N[C@@H](CC(C)C)C(=O)N[C@@H](CC(N)=O)C(=O)N[C@@H](Cc4c[nH]c5ccccc45)C(=O)N[C@H](C(=O)N[C@H](C(=O)N[C@@H](CCCNC(=N)N)C(=O)N[C@@H](CCC(N)=O)C(=O)N(C)[C@@H](CCCNC(=N)N)C(=O)N[C@@H](Cc4ccc(O)cc4)C(N)=O)[C@@H](C)O)C(C)C)c(=O)c3c2)CC1 [Example 36]
- EC50 (Y1R): > 5000 nM
- EC50 (Y5R): 481 nM
- Emax (Y5R): 73%
- EC50 (hNPY2R [1]): 0.15 nM
- EC50 (Y4R): > 5000 nM
- EC50 (hNPY2R [2]): 0.138 nM

Compound: CCCCCCCCCCCCCCCCCCCC(=O)NCCOCCOCCNC(=O)CCC(=O)NCCCC[C@H](NC(=O)[C@@H](N)[C@@H](C)CC)C(=O)N1CCN(c2ccc3ncn(CC(=O)N[C@@H](CCCNC(=N)N)C(=O)N[C@@H](Cc4c[nH]cn4)C(=O)N[C@@H](Cc4ccc(O)cc4)C(=O)N[C@@H](CC(C)C)C(=O)N[C@@H](CC(N)=O)C(=O)N[C@@H](Cc4c[nH]c5ccccc45)C(=O)N[C@H](C(=O)N[C@H](C(=O)N[C@@H](CCCNC(=N)N)C(=O)N[C@@H](CCC(N)=O)C(=O)N(C)[C@@H](CCCNC(=N)N)C(=O)N[C@@H](Cc4ccc(O)cc4)C(N)=O)[C@@H](C)O)C(C)C)c(=O)c3c2)CC1 [Example 37]
- EC50 (Y1R): > 5000 nM
- EC50 (Y5R): 77.9 nM
- Emax (Y5R): 48%
- EC50 (hNPY2R [1]): 0.13 nM
- EC50 (Y4R): > 5000 nM
- EC50 (hNPY2R [2]): 0.367 nM

Compound: CCCCCCCCCCCCCCCC(=O)NCCOCCNC(=O)CCC(=O)NCCCC[C@H](NC(=O)[C@@H](N)[C@@H](C)CC)C(=O)N1CCN(c2ccc3ncn(CC(=O)N[C@@H](CCCNC(=N)N)C(=O)N[C@@H](Cc4c[nH]cn4)C(=O)N[C@@H](Cc4ccc(O)cc4)C(=O)N[C@@H](CC(C)C)C(=O)N[C@@H](CC(N)=O)C(=O)N[C@@H](Cc4c[nH]c5ccccc45)C(=O)N[C@H](C(=O)N[C@H](C(=O)N[C@@H](CCCNC(=N)N)C(=O)N[C@@H](CCC(N)=O)C(=O)N(C)[C@@H](CCCNC(=N)N)C(=O)N[C@@H](Cc4ccc(O)cc4)C(N)=O)[C@@H](C)O)C(C)C)c(=O)c3c2)CC1 [Example 38]
- EC50 (Y1R): > 5000 nM
- EC50 (Y5R): 644 nM
- Emax (Y5R): 83%
- EC50 (hNPY2R [1]): 0.17 nM
- EC50 (Y4R): > 5000 nM
- EC50 (hNPY2R [2]): 0.003 nM

Compound: CCCCCCCCCCCCCCCCCCCC(=O)NCCOCCNC(=O)CCC(=O)NCCCC[C@H](NC(=O)[C@@H](N)[C@@H](C)CC)C(=O)N1CCN(c2ccc3ncn(CC(=O)N[C@@H](CCCNC(=N)N)C(=O)N[C@@H](Cc4c[nH]cn4)C(=O)N[C@@H](Cc4ccc(O)cc4)C(=O)N[C@@H](CC(C)C)C(=O)N[C@@H](CC(N)=O)C(=O)N[C@@H](Cc4c[nH]c5ccccc45)C(=O)N[C@H](C(=O)N[C@H](C(=O)N[C@@H](CCCNC(=N)N)C(=O)N[C@@H](CCC(N)=O)C(=O)N(C)[C@@H](CCCNC(=N)N)C(=O)N[C@@H](Cc4ccc(O)cc4)C(N)=O)[C@@H](C)O)C(C)C)c(=O)c3c2)CC1 [Example 39]
- EC50 (Y1R): > 5000 nM
- EC50 (Y5R): 285 nM
- Emax (Y5R): 50%
- EC50 (hNPY2R [1]): 0.21 nM
- EC50 (Y4R): > 5000 nM
- EC50 (hNPY2R [2]): 0.073 nM

Compound: CCCCCCCCCCCCCCCC(=O)N[C@@H](CO)C(=O)N[C@@H](CO)C(=O)NCCCC[C@H](NC(=O)[C@@H](N)[C@@H](C)CC)C(=O)N1CCN(c2ccc3ncn(CC(=O)N[C@@H](CCCNC(=N)N)C(=O)N[C@@H](Cc4c[nH]cn4)C(=O)N[C@@H](Cc4ccc(O)cc4)C(=O)N[C@@H](CC(C)C)C(=O)N[C@@H](CC(N)=O)C(=O)N[C@@H](Cc4c[nH]c5ccccc45)C(=O)N[C@H](C(=O)N[C@H](C(=O)N[C@@H](CCCNC(=N)N)C(=O)N[C@@H](CCC(N)=O)C(=O)N(C)[C@@H](CCCNC(=N)N)C(=O)N[C@@H](Cc4ccc(O)cc4)C(N)=O)[C@@H](C)O)C(C)C)c(=O)c3c2)CC1 [Example 40]
- EC50 (Y1R): > 5000 nM
- EC50 (Y5R): 602 nM
- Emax (Y5R): 85%
- EC50 (hNPY2R [1]): 0.18 nM
- EC50 (Y4R): > 5000 nM
- EC50 (hNPY2R [2]): 0.36 nM

Compound: CCCCCCCCCCCCCCCCCCCC(=O)N[C@@H](CO)C(=O)N[C@@H](CO)C(=O)NCCCC[C@H](NC(=O)[C@@H](N)[C@@H](C)CC)C(=O)N1CCN(c2ccc3ncn(CC(=O)N[C@@H](CCCNC(=N)N)C(=O)N[C@@H](Cc4c[nH]cn4)C(=O)N[C@@H](Cc4ccc(O)cc4)C(=O)N[C@@H](CC(C)C)C(=O)N[C@@H](CC(N)=O)C(=O)N[C@@H](Cc4c[nH]c5ccccc45)C(=O)N[C@H](C(=O)N[C@H](C(=O)N[C@@H](CCCNC(=N)N)C(=O)N[C@@H](CCC(N)=O)C(=O)N(C)[C@@H](CCCNC(=N)N)C(=O)N[C@@H](Cc4ccc(O)cc4)C(N)=O)[C@@H](C)O)C(C)C)c(=O)c3c2)CC1 [Example 41]
- EC50 (Y1R): > 5000 nM
- EC50 (Y5R): 1830 nM
- Emax (Y5R): 37%
- EC50 (hNPY2R [1]): 0.11 nM
- EC50 (Y4R): > 5000 nM
- EC50 (hNPY2R [2]): 0.165 nM

Compound: CCCCCCCCCCCCCCCC(=O)N[C@H](C(=O)N[C@H](C(=O)NCCCC[C@H](NC(=O)[C@@H](N)[C@@H](C)CC)C(=O)N1CCN(c2ccc3ncn(CC(=O)N[C@@H](CCCNC(=N)N)C(=O)N[C@@H](Cc4c[nH]cn4)C(=O)N[C@@H](Cc4ccc(O)cc4)C(=O)N[C@@H](CC(C)C)C(=O)N[C@@H](CC(N)=O)C(=O)N[C@@H](Cc4c[nH]c5ccccc45)C(=O)N[C@H](C(=O)N[C@H](C(=O)N[C@@H](CCCNC(=N)N)C(=O)N[C@@H](CCC(N)=O)C(=O)N(C)[C@@H](CCCNC(=N)N)C(=O)N[C@@H](Cc4ccc(O)cc4)C(N)=O)[C@@H](C)O)C(C)C)c(=O)c3c2)CC1)[C@@H](C)O)[C@@H](C)O [Example 42]
- EC50 (Y1R): > 5000 nM
- EC50 (Y5R): 193 nM
- Emax (Y5R): 46%
- EC50 (hNPY2R [1]): 0.14 nM
- EC50 (Y4R): > 5000 nM
- EC50 (hNPY2R [2]): 0.018 nM

Compound: CCCCCCCCCCCCCCCCCCCC(=O)N[C@H](C(=O)N[C@H](C(=O)NCCCC[C@H](NC(=O)[C@@H](N)[C@@H](C)CC)C(=O)N1CCN(c2ccc3ncn(CC(=O)N[C@@H](CCCNC(=N)N)C(=O)N[C@@H](Cc4c[nH]cn4)C(=O)N[C@@H](Cc4ccc(O)cc4)C(=O)N[C@@H](CC(C)C)C(=O)N[C@@H](CC(N)=O)C(=O)N[C@@H](Cc4c[nH]c5ccccc45)C(=O)N[C@H](C(=O)N[C@H](C(=O)N[C@@H](CCCNC(=N)N)C(=O)N[C@@H](CCC(N)=O)C(=O)N(C)[C@@H](CCCNC(=N)N)C(=O)N[C@@H](Cc4ccc(O)cc4)C(N)=O)[C@@H](C)O)C(C)C)c(=O)c3c2)CC1)[C@@H](C)O)[C@@H](C)O [Example 43]
- EC50 (Y1R): > 5000 nM
- EC50 (Y5R): 243 nM
- Emax (Y5R): 23%
- EC50 (hNPY2R [1]): 0.26 nM
- EC50 (Y4R): > 5000 nM
- EC50 (hNPY2R [2]): 0.074 nM
